Source: patent US20240216369A1, “THE USE OF A SPLICING MODULATOR FOR A TREATMENT SLOWING PROGRESSION OF HUNTINGTON'S DISEASE” (Novartis AG, priority 2019, published 2024)

What was measured:
tHTT = experiment: Mutant and total HTT multiplex HTRF assay in Q48 HTT human embryonic stem cell line: tHTT; type: cell-based; settings: Q48 HTT hESC, 48 hours
Procedure: (§1) The multiplex assay is performed in human embryonic stem cells (hESCs) which have been derived by Genea Biocells from human blastocysts of HD donors. Cells are plated at a density of 10,000 cells/well into 384-well collagen coated plates and left to adhere for 24 hours, compounds 1 to 82 are then added to cells and incubated for 48 hours (37° C., 5% CO2), cells are then lysed and the contents split into a black 384-well plate.
(§2) The black plates have a combination of HTRF labeled monoclonal antibodies added which recognize discrete areas of the HTT protein, the 2B7-Tb “donor” antibody (0.2 ng/well) recognizes a sequence at the N-terminus of the protein, an MW1-Alexa488 “acceptor 1” antibody (30 ng/well) recognizes an area in the polyQ region, whereas a MAB2166-d2 “acceptor 2” antibody (6 ng/well) recognizes a sequence beyond the polyQ region. The 2B7 antibody was obtained from Coriell (CH02024), the MW1 antibody from Millipore (MABN2427), and the MAB2166 antibody from Millipore (1HU-4C8).
(§3) These detection reagents are incubated with the cell lysate at room temperature for 4-6 hours before having their fluorescence quantified at 615 nm (donor) and 535 nm and 665 nm (acceptor 1 and 2 respectively). The donor/acceptor ratio between these signals indicates the relative quantities of mHTT and tHTT proteins. As shown in the Table 1, compounds 1 to 82 as described therein and in Table 2, had the following pIC50 values.

mHTT = experiment: Mutant and total HTT multiplex HTRF assay in Q48 HTT human embryonic stem cell line: mHTT; type: cell-based; settings: Q48 HTT hESC, 48 hours
Procedure: as §1, §2, §3

| Structure (SMILES) | tHTT pIC50 (tHTT) | Rating (based on mHTT potency) (mHTT) | mHTT pIC50 (mHTT) |
| --- | --- | --- | --- |
| CN(c1ccc(-c2c(O)cc(-c3ccn(C)c(=O)c3)cc2F)nn1)C1CC(C)(C)NC(C)(C)C1 [Compound 23, 4-(3-fluoro-5-hydroxy-4-(6-(methyl(2,2,6,6-tetramethylpiperidin-4-yl)amino)pyridazin-3-yl)phenyl)-1-methylpyridin-2(1H)-one] | 7.17 | **** (a pIC50 value between 7.0 and 7.5 is indicated by four stars (****)) | 7.1895 |
| CCn1ccc2cc(O)c(-c3ccc(OC4CC(C)(C)NC(C)(C)C4)nn3)cc2c1=O [Compound 24, 2-ethyl-6-hydroxy-7-(6-((2,2,6,6-tetramethylpiperidin-4-yl)oxy)pyridazin-3-yl)isoquinolin-1(2H)-one] | 7.168 | **** (a pIC50 value between 7.0 and 7.5 is indicated by four stars (****)) | 7.186 |
| CN(c1ccc(-c2cc3c(O)nccc3cc2O)nn1)C1CC(C)(C)NC(C)(C)C1 [Compound 25, 7-(6-(methyl(2,2,6,6-tetramethylpiperidin-4-yl)amino)pyridazin-3-yl)isoquinoline-1,6-diol] | 7.128 | **** (a pIC50 value between 7.0 and 7.5 is indicated by four stars (****)) | 7.161 |
| CN(c1ccc(-c2ccc(-c3ccn(C4CC4)c(=O)c3)cc2O)nn1)C1CC(C)(C)NC(C)(C)C1 [Compound 26, 1-cyclopropyl-4-(3-hydroxy-4-(6-(methyl(2,2,6,6-tetramethylpiperidin-4-yl)amino)pyridazin-3-yl)phenyl)pyridin-2(1H)-one] | 7.0435 | **** (a pIC50 value between 7.0 and 7.5 is indicated by four stars (****)) | 7.1215 |
| Oc1cc(-c2cn[nH]c2)cc(F)c1-c1nnc(N2C[C@H]3CNC[C@H]3C2)s1 [Compound 27, 3-fluoro-2-(5-((3aR,6aS)-hexahydropyrrolo[3,4-c]pyrrol-2(1H)-yl)-1,3,4-thiadiazol-2-yl)-5-(1H-pyrazol-4-yl)phenol] | 7.085 | **** (a pIC50 value between 7.0 and 7.5 is indicated by four stars (****)) | 7.1125 |
| CN(c1ccc(-c2cc3cnn(C)c3cc2O)nn1)C1CC(C)(C)NC(C)(C)C1 [Compound 28, 1-methyl-5-(6-(methyl(2,2,6,6-tetramethylpiperidin-4-yl)amino)pyridazin-3-yl)-1H-indazol-6-ol] | 7.1045 | **** (a pIC50 value between 7.0 and 7.5 is indicated by four stars (****)) | 7.111 |
| Cn1ccc(-c2ccc(-c3ccc(OC4CC(C)(C)NC(C)(C)C4)nn3)c(O)c2)cc1=O [Compound 29, 4-(3-hydroxy-4-(6-((2,2,6,6-tetramethylpiperidin-4-yl)oxy)pyridazin-3-yl)phenyl)-1-methylpyridin-2(1H)-one] | 7.074 | **** (a pIC50 value between 7.0 and 7.5 is indicated by four stars (****)) | 7.0855 |
| Cc1cc2cc(O)c(-c3ccc(N(C)C4CC(C)(C)NC(C)(C)C4)nn3)cc2cn1 [Compound 30, 3-methyl-7-(6-(methyl(2,2,6,6-tetramethylpiperidin-4-yl)amino)pyridazin-3-yl)isoquinolin-6-ol] | 7.0835 | **** (a pIC50 value between 7.0 and 7.5 is indicated by four stars (****)) | 7.08 |
| CN(c1ccc(-c2cc3ncccc3cc2O)nn1)C1CC(C)(C)NC(C)(C)C1 [Compound 31, 7-(6-(methyl(2,2,6,6-tetramethylpiperidin-4-yl)amino)pyridazin-3-yl)quinolin-6-ol] | 7.0015 | **** (a pIC50 value between 7.0 and 7.5 is indicated by four stars (****)) | 7.0275 |
| CN1C[C@@H]2CN(c3ccc(-c4ccc(-c5cn[nH]c5)cc4O)nn3)C[C@@H]2C1 [Compound 32, 2-(6-((3aR,6aS)-5-methylhexahydropyrrolo[3,4-c]pyrrol-2(1H)-yl)pyridazin-3-yl)-5-(1H-pyrazol-4-yl)phenol] | 7.0625 | **** (a pIC50 value between 7.0 and 7.5 is indicated by four stars (****)) | 7.0085 |
| CN(c1ccc(-c2cc3c(cc2O)-c2nc(N)sc2C3)nn1)C1CC(C)(C)NC(C)(C)C1 [Compound 33, 2-amino-6-(6-(methyl(2,2,6,6-tetramethylpiperidin-4-yl)amino)pyridazin-3-yl)-8H-indeno[1,2-d]thiazol-5-ol] | 7.001 | **** (a pIC50 value between 7.0 and 7.5 is indicated by four stars (****)) | 7.0085 |
| CC1(C)CC(Oc2ccc(-c3ccc(-n4cccn4)cc3O)nn2)CC(C)(C)N1 [Compound 34, 5-(1H-pyrazol-1-yl)-2-(6-(2,2,6,6-tetramethylpiperidin-4-yloxy)pyridazin-3-yl)phenol] | 6.9475 | **** (a pIC50 value between 7.0 and 7.5 is indicated by four stars (****)) | 7.004 |
| Cc1cc(-c2ccc(-c3ccc(N(C)C4CC(C)(C)NC(C)(C)C4)nn3)c(O)c2)ccn1 [Compound 35, 2-(6-(methyl(2,2,6,6-tetramethylpiperidin-4-yl)amino)pyridazin-3-yl)-5-(2-methylpyridin-4-yl)phenol] | 6.877 | **** (a pIC50 value between 7.0 and 7.5 is indicated by four stars (****)) | 7.003 |
| Oc1cc(-c2cn[nH]c2)cc(F)c1-c1nnc(N2CC3(CCNCC3)C2)s1 [Compound 36, 2-(5-(2,7-diazaspiro[3.5]nonan-2-yl)-1,3,4-thiadiazol-2-yl)-3-fluoro-5-(1H-pyrazol-4-yl)phenol] | 6.827 | *** (a pIC50 value between 6.5 and 7.0 is indicated by three stars (***)) | 6.996 |
| CC1(C)CC(Oc2ccc(-c3cc4ccc(O)cc4cc3O)nn2)CC(C)(C)N1 [Compound 37, 3-(6-(2,2,6,6-tetramethylpiperidin-4-yloxy)pyridazin-3-yl)naphthalene-2,7-diol] | 7.121 | *** (a pIC50 value between 6.5 and 7.0 is indicated by three stars (***)) | 6.98 |
| Cc1cnc2cc(-c3ccc(N(C)C4CC(C)(C)NC(C)(C)C4)nn3)c(O)cc2n1 [Compound 38, 3-methyl-7-(6-(methyl(2,2,6,6-tetramethylpiperidin-4-yl)amino)pyridazin-3-yl)quinoxalin-6-ol] | 7.0015 | *** (a pIC50 value between 6.5 and 7.0 is indicated by three stars (***)) | 6.9735 |
| CN(c1ccc(-c2cc3nccnc3cc2O)nn1)C1CC(C)(C)NC(C)(C)C1 [Compound 39, 7-(6-(methyl(2,2,6,6-tetramethylpiperidin-4-yl)amino)pyridazin-3-yl)quinoxalin-6-ol] | 6.9105 | *** (a pIC50 value between 6.5 and 7.0 is indicated by three stars (***)) | 6.946 |
| CN(c1ccc(-c2cc3cn(C)nc3cc2O)nn1)C1CC(C)(C)NC(C)(C)C1 [Compound 40, 2-methyl-5-(6-(methyl(2,2,6,6-tetramethylpiperidin-4-yl)amino)pyridazin-3-yl)-2H-indazol-6-ol] | 6.994 | *** (a pIC50 value between 6.5 and 7.0 is indicated by three stars (***)) | 6.927 |
| CN(c1ccc(-c2cc3ccccc3cc2O)nn1)C1CC(C)(C)NC(C)(C)C1 [Compound 41, 3-(6-(methyl(2,2,6,6-tetramethylpiperidin-4-yl)amino)pyridazin-3-yl)naphthalen-2-ol] | 6.8125 | *** (a pIC50 value between 6.5 and 7.0 is indicated by three stars (***)) | 6.923 |
| Cc1nc2cc(O)c(-c3ccc(N(C)C4CC(C)(C)NC(C)(C)C4)nn3)cc2nc1C [Compound 42, 2,3-dimethyl-7-(6-(methyl(2,2,6,6-tetramethylpiperidin-4-yl)amino)pyridazin-3-yl)quinoxalin-6-ol] | 6.885 | *** (a pIC50 value between 6.5 and 7.0 is indicated by three stars (***)) | 6.92 |
| CNc1ccn(-c2ccc(-c3nnc(N(C)C4CC(C)(C)NC(C)(C)C4)s3)c(O)c2)n1 [Compound 43, 2-(5-(methyl(2,2,6,6-tetramethylpiperidin-4-yl)amino)-1,3,4-thiadiazol-2-yl)-5-(3-(methylamino)-1H-pyrazol-1-yl)phenol] | 6.852 | *** (a pIC50 value between 6.5 and 7.0 is indicated by three stars (***)) | 6.917 |
| CCN1CCC(c2cn3c(=O)cc(-c4ccc5nn(C)cc5c4)nc3c(C)n2)CC1 [Compound 44, 7-(1-ethylpiperidin-4-yl)-9-methyl-2-(2-methyl-2H-indazol-5-yl)-4H-pyrazino[1,2-a]pyrimidin-4-one] | 6.7695 | *** (a pIC50 value between 6.5 and 7.0 is indicated by three stars (***)) | 6.869 |
